Results taken from PubChem BioAssay (NCI).
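Here, GI50 denotes the concentration required for 50% inhibition of growth. At the TGI there is no net growth.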

What was measured:
Assay in all cases: inhibition of tumour cell growth, NCI panel, 384-well format
[1] = test system: NCI-H226 lung
[2] = test system: SK-MEL-5 melanoma
[3] = test system: MDA-MB-435 melanoma
[4] = test system: OVCAR-8 ovarian
[5] = test system: LOX IMVI melanoma
[6] = test system: HOP-92 NSCLC
[7] = test system: T-47D breast
[8] = test system: SF-295 CNS
[9] = test system: TK-10 renal
[10] = test system: U251 glioblastoma
[11] = test system: MOLT-4 leukemia
[12] = test system: SNB-19 CNS
[13] = test system: SN12C renal
[14] = test system: K-562 leukemia
[15] = test system: SF-268 CNS
[16] = test system: OVCAR-5 ovarian
[17] = test system: M14 melanoma
[18] = test system: HCT-116 colon
[19] = test system: RPMI-8226 leukemia
[20] = test system: UACC-62 melanoma
[21] = test system: NCI-H460 NSCLC
[22] = test system: RXF 393 renal
[23] = test system: HL-60(TB) leukemia
[24] = test system: BT-549 breast
[25] = test system: HT29 colon
[26] = test system: OVCAR-3 ovarian
[27] = test system: COLO 205 colon
[28] = test system: DU-145 prostate
[29] = test system: SK-MEL-28 melanoma
[30] = test system: SF-539 CNS
[31] = test system: PC-3 prostate
[32] = test system: CAKI-1 renal
[33] = test system: ACHN renal
[34] = test system: 786-0 renal
[35] = test system: UO-31 renal
[36] = test system: A549 NSCLC
[37] = test system: A498 renal
[38] = test system: NCI/ADR-RES ovarian
[39] = test system: CCRF-CEM leukemia
[40] = test system: HCC-2998 colon
[41] = test system: HCT-15 colon
[42] = test system: UACC-257 melanoma
[43] = test system: HOP-62 NSCLC
[44] = test system: IGROV1 ovarian
[45] = test system: KM12 colon
[46] = test system: NCI-H322M lung
[47] = test system: SW-620 colon

CN(CCO)CC[C@H](CSc1ccccc1)Nc1ccc(S(=O)(=O)NC(=O)c2ccc(N3CCC([C@@H](O)c4ccccc4-c4ccc(Cl)cc4)CC3)cc2)cc1S(=O)(=O)C(F)(F)F
GI50 [1]: 1.76 µM | TGI [1]: 6.04 µM | GI50 [2]: 1.81 µM | TGI [2]: 6.32 µM | GI50 [3]: 3.42 µM | TGI [3]: 9.42 µM | GI50 [4]: 11.9 µM | TGI [4]: 24.4 µM | GI50 [5]: 1.96 µM | TGI [5]: 3.62 µM | GI50 [6]: < 0.01 µM | TGI [6]: 0.301 µM | GI50 [7]: 3.88 µM | TGI [7]: 14.6 µM | GI50 [8]: 2.16 µM | TGI [8]: 5.23 µM | GI50 [9]: 3.78 µM | TGI [9]: 15.9 µM | GI50 [10]: 2.62 µM | TGI [10]: 6.48 µM | GI50 [11]: < 0.01 µM | TGI [11]: < 0.01 µM | GI50 [12]: 4.85 µM | TGI [12]: 17.2 µM | GI50 [13]: 4.04 µM | TGI [13]: 13.9 µM | GI50 [14]: 3.04 µM | TGI [14]: 8.08 µM | GI50 [15]: 4.16 µM | TGI [15]: 13.9 µM | GI50 [16]: 5 µM | TGI [16]: 21.3 µM | GI50 [17]: 2.82 µM | TGI [17]: 7.47 µM | GI50 [18]: 2.97 µM | TGI [18]: 9.36 µM | GI50 [19]: < 0.01 µM | TGI [19]: < 0.01 µM | GI50 [20]: 2.32 µM | TGI [20]: 5.75 µM | GI50 [21]: 13.7 µM | TGI [21]: 27.9 µM | GI50 [22]: < 0.01 µM | TGI [22]: 0.53 µM | GI50 [23]: < 0.01 µM | TGI [23]: < 0.01 µM | GI50 [24]: 3.45 µM | TGI [24]: 10.3 µM | GI50 [25]: 4.35 µM | TGI [25]: 15.5 µM | GI50 [26]: 3.54 µM | TGI [26]: 12.2 µM | GI50 [27]: 0.807 µM | TGI [27]: 2.13 µM | GI50 [28]: 18.6 µM | TGI [28]: 55.9 µM | GI50 [29]: 2.31 µM | TGI [29]: 4.96 µM | GI50 [30]: 4.11 µM | TGI [30]: 14.7 µM | GI50 [31]: 2.43 µM | TGI [31]: 5.71 µM | GI50 [32]: 5.42 µM | TGI [32]: 15.9 µM | GI50 [33]: 22.6 µM | TGI [33]: > 100 µM | GI50 [34]: 2.51 µM | TGI [34]: 6.68 µM | GI50 [35]: > 100 µM | TGI [35]: > 100 µM | GI50 [36]: > 100 µM | TGI [36]: > 100 µM | GI50 [37]: 1.73 µM | TGI [37]: 6.09 µM | GI50 [38]: > 100 µM | TGI [38]: > 100 µM | GI50 [39]: < 0.01 µM | TGI [39]: 0.0137 µM | GI50 [40]: < 0.01 µM | TGI [40]: 0.199 µM | GI50 [41]: 64.9 µM | TGI [41]: > 100 µM | GI50 [42]: 2.29 µM | TGI [42]: 13.6 µM | GI50 [43]: 5.33 µM | TGI [43]: 16.7 µM | GI50 [44]: 1.6 µM | TGI [44]: 3.25 µM | GI50 [45]: 2.69 µM | TGI [45]: 6.67 µM | GI50 [46]: 2.72 µM | TGI [46]: 9.6 µM | GI50 [47]: 4.48 µM | TGI [47]: 16.2 µM
